Consider 28 molecules from PMC3661926 (Acta Neuropathologica, 2013).

The subject of data set [1] is cultured human peripheral lymphocytes.
The next data set deals with T1, α-synuclein (α-syn) (Homo sapiens, UniProt P37840).
T1 construct: made in house
Briefly: α-synuclein in vitro oligomer formation assay (SIFT). It is filed as biochemical. Conditions: read-out: % inhibition α-syn SIFT. Here is the method:
Expression and purification of recombinant wild-type α-synuclein (α-syn) was performed according to established protocols. Fluorescent labelling of α-syn and quality control were performed as described.
The α-syn aggregation assay was conducted with minor modifications as published previously. […] The concentration of α-syn was approximately 20 nM. In all experiments, α-syn aggregation was induced by final concentrations of 1 % DMSO and 10 μM FeCl3. Compounds were diluted into the assay mixture from 10-fold stock solutions containing 10 % DMSO (v/v), resulting in a final concentration of 1 % DMSO in all samples. “Low control” measurements for threshold setting were obtained without FeCl3 and DMSO. Experiments were started by diluting the 5-fold stock solution of fluorescently labelled α-syn in 50 mM Tris-buffer, pH 7.0, containing 1 % DMSO, 10 μM FeCl3 and compounds in concentrations ranging from 1–10 μM.
Aggregation of α-syn was measured by scanning for intensely fluorescent targets (SIFT). […] Excitation power was 200 μW at 488 nm and 300 μW at 633 nm. Measurement time was 10 s. Scanning parameters were set to 100 μm scan path length, 50 Hz beam scanner frequency, and 2,000 μm positioning table movement. The frequency of specific combinations of “green” and “red” photon counts was recorded in a two-dimensional intensity distribution histogram, as described previously. Evaluation of SIFT data in two-dimensional intensity distribution histograms was performed by summing up the numbers of photons from high intensity bins using a two-dimensional SIFT software module (Evotec-Technologies). For threshold setting, non-aggregated reference samples were used. The photon count in bins above the threshold was considered aggregate signal.

Data set [2] concerns the target PrP^Sc (RML prion strain) (Mus musculus, UniProt P04925). Briefly: biochemical. Conditions: read-out: % inhibition PrP^Sc PMCA.
Another data set concerns RML scrapie. Briefly: whole plant or invertebrate. Conditions: for % inhibition PrP^Sc in vivo (b): PrP^Sc level in spleen 35 days after i.p. infection, 34 days treatment with 1 mg compound oral in peanut butter; for inhibition in vivo at 1 mg: in Mus musculus, po, 2880 h, read-out: % inhibition PrP^Sc in vivo (a). It is filed as in vivo, C57BL/6 mice.
For data set [3] the following is noted: mouse, in vivo, po.
A further data set deals with actin. It is filed as biochemical.
For another data set, the system named is prion. Conditions: cited from earlier work.
The conditions of data set [4]: in vivo; cited from earlier work.
The subject of the next data set is RML. Conditions: mouse, in vivo, cited from earlier work.
The next data set concerns 139A. Conditions: mouse, in vivo, cited from earlier work.
Data set [5] has as its system prion strains RML, ME7, 301C, sCJD, vCJD. It is filed as biochemical, mouse and human. The conditions noted are these: 1 μl of 10 mM compound solution in DMSO.
For the next data set, the system named is M1000. The conditions noted are these: mouse, in vivo, ip; cited from earlier work.
The mark [6] stands for this setting: relative to high control, 10 μM compound, 1 % DMSO, 10 μM FeCl3.

Like-named read-outs stand apart in the source and are kept apart here. Bounds are passed on as bounds.

Chain of PrP^Sc (RML prion strain) (P04925 23-230 limits assumed): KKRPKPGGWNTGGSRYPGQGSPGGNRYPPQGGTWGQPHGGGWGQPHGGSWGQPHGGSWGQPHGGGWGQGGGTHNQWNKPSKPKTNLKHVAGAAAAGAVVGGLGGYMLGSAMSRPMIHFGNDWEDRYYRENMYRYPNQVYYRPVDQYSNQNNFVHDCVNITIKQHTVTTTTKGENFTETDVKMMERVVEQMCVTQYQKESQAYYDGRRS

Consider `CO[C@@]12[C@H](COC(N)=O)C3=C(C(=O)C(C)=C(N)C3=O)N1C[C@@H]1N[C@@H]12` [Mitomycin C, reference compound], for which the “chromosomal damage by positive controls” value in data set [1] is “significant damage”.

In the case of `Clc1cccc(-c2cc(-c3ccc4c(c3)OCO4)n[nH]2)c1` [sery335b, 3-(1,3-Benzodioxol-5-yl)-5-(3-chlorophenyl)-1H-pyrazole], the inhibition at 10 µM on α-synuclein (α-syn) (setting [6]) was 90%. For the same molecule, the inhibition at 10 µM in data set [2] worked out at 52%. In addition, in the data set on RML scrapie, the “% inhibition PrP^Sc in vivo (b)” value is 46% and the inhibition in vivo at 1 mg was found to be 68%. The molecule further returned a conc. brain in data set [3] of 29.6 nmol/g.

As for `O=P1(N(CCCl)CCCl)NCCCO1` (centres unmarked) [cyclophosphamide, reference compound], the “chromosomal damage by positive controls” value in data set [1] was “significant damage”.

Turning to `Br.Oc1cc(-c2cc(-c3cc(Br)cc(Br)c3)n[nH]2)cc(O)c1O` [anle145c], the “effect on actin polymerization” value in the data set on actin was “do not affect actin polymerization”.

As for `CCN(CC)CCCC(C)Nc1c2ccc(Cl)cc2nc2ccc(OC)cc12` (centres unmarked) [quinacrine], the “anti-prion activity in cell culture” value in the data set on prion is given as “high anti-prion activity in cell culture”. The “concentrations reached in the brain” value in [4] is on record as “does not reach sufficient concentrations in the brain”.

`Nc1ccc(-c2cc(-c3ccc(Cl)cc3)[nH]n2)cc1` yielded a melting point of 213 to 214 °C.

With `Fc1ccc(F)c(-c2cc(-c3ccc4c(c3)OCO4)n[nH]2)c1`, the melting point was in the range of 225 to 226 °C.

For the molecule `CCC(C)(C)C(=O)O[C@H]1C[C@@H](C)C=C2C=C[C@H](C)[C@H](CC[C@@H]3C[C@@H](O)CC(=O)O3)[C@H]21` [Simvastatin], in the data set on RML (po, 20 mg/kg), the “Median/Mean* Survival Therapy” value is on record as 167 days and the “difference of survival therapy vs control” value (“difference” for short) is reported as 19 days.

On to `c1cc2c(cc1-c1cc(-c3ccc4c(c3)OCO4)[nH]n1)OCO2` [anle232b], for which the inhibition at 10 µM is < 10% on α-synuclein (α-syn) (setting [6]) and 26% in data set [2]. Also, the inhibition in vivo at 1 mg in the data set with RML scrapie was 23%.

With `Brc1ccc(-c2cc(-c3ccc4c(c3)OCO4)n[nH]2)cc1` [sery378b], the inhibition at 10 µM at α-synuclein (α-syn) (setting [6]) worked out at 74%; in data set [2], 34%. In addition, the inhibition in vivo at 1 mg in the data set with RML scrapie came to 39%. Also, the conc. brain in [3] came to 26 nmol/g.

As for `Cl.Nc1ccc(-c2cc(-c3cccc(Br)c3)[nH]n2)cc1` [sery384], the values for the inhibition at 10 µM (on α-synuclein (α-syn); in [2]) were 99% and 55%, respectively. In addition, the inhibition in vivo at 1 mg in the data set with RML scrapie was < 10%. Moreover, the conc. brain in data set [3] is recorded as 13,9 nmol/g.

On to `C=CC[C@@H]1/C=C(\C)C[C@H](C)C[C@H](OC)[C@H]2O[C@@](O)(C(=O)C(=O)N3CCCC[C@H]3C(=O)O[C@H](/C(C)=C/[C@@H]3CC[C@@H](O)[C@H](OC)C3)[C@H](C)[C@@H](O)CC1=O)[C@H](C)C[C@@H]2OC` [Tacrolimus], for which, in the data set with RML (ip, 5 mg/kg), the “Median/Mean* Survival Therapy” value is 35 days and the “difference” value is on record as 9 days.

`Ic1cccc(-c2cc(-c3ccc4c(c3)OCO4)n[nH]2)c1` [anle197b]: the values for the inhibition at 10 µM (at α-synuclein (α-syn) (setting [6]); in [2]) were < 10% and 16%, respectively. Moreover, in the data set on RML scrapie, the “% inhibition PrP^Sc in vivo (b)” value is <10^b %.

Consider `CN(C)c1ccc(-c2cc(-c3cccc(Br)c3)n[nH]2)cc1` [anle253b], for which the inhibition at 10 µM came to 50% at α-synuclein (α-syn) (setting [6]) and 80% in [2]. Also, the inhibition in vivo at 1 mg with RML scrapie was found to be 59%. Further, the “effect on actin polymerization” value in the data set with actin was “do not affect actin polymerization”. Also, the conc. brain in data set [3] is given as 2.1 nmol/g.

Regarding `Oc1ccc(-c2cc(-c3cccc(Br)c3)n[nH]2)cc1O` [anle138c], the inhibition at 10 µM on α-synuclein (α-syn) (setting [6]) turned out to be 99%; in data set [2], 19%. Besides, in the data set on RML scrapie, the inhibition in vivo at 1 mg was < 10%. Besides, the “effect on actin polymerization” value in the data set with actin is recorded as “do not affect actin polymerization”.

On to `COc1cc(/C=C/C(=O)CC(=O)/C=C/c2ccc(O)c(OC)c2)ccc1O` [Curcumin], for which, in the data set with 139A (po, 50 mg/kg), the “Median/Mean* Survival Therapy” value is 208 days and the “difference” value was 12 days.

Consider `OCCN1CCN(CCCN2c3ccccc3Sc3ccc(C(F)(F)F)cc32)CC1` [Fluphenazine], for which, in the data set on 139A (ip, 10 mg/kg), the “Median/Mean* Survival Therapy” value was 205 days and the “difference” value was 35 days.

As to `Brc1ccccc1-c1cc(-c2ccc3c(c2)OCO3)n[nH]1` [anle234b], the inhibition at 10 µM (at α-synuclein (α-syn) (setting [6]); in data set [2]) was < 10% in each case. Besides, in [5], the “inhibitory activity in PMCA, all prion strains tested” value is “inactive”. The inhibition in vivo at 1 mg with RML scrapie is < 10%. In [3], the conc. brain came out at 32.1 nmol/g.

Take `CC(CN(C)C)CN1c2ccccc2CCc2ccccc21` (centres unmarked) [Trimipramine]: in the data set with 139A (ip, 10 mg/kg), the “Median/Mean* Survival Therapy” value was 210 days and the “difference” value is 40 days.

As to `Fc1cccc(-c2nc(-c3ccc4c(c3)OCO4)no2)c1`, the melting point was 161 °C.

For `Brc1cccc(-c2cc(-c3ccc4[nH]cnc4c3)n[nH]2)c1` [sery417], the inhibition at 10 µM was < 10% at α-synuclein (α-syn) (setting [6]) and 51% in [2]. The inhibition in vivo at 1 mg in the data set with RML scrapie is < 10%. This molecule came in with a conc. brain in [3] of 0 nmol/g.

In the case of `CC[C@H](C)C(=O)O[C@H]1C[C@H](O)C=C2C=C[C@H](C)[C@H](CC[C@@H](O)C[C@@H](O)CC(=O)O)[C@H]21` [Pravastatin], in the data set with 139A (po, 200 mg/kg), the “Median/Mean* Survival Therapy” value is reported as 194 days and the “difference” value is 17 days.

Take `FC(F)(F)c1cccc(-c2cc(-c3ccc4c(c3)OCO4)n[nH]2)c1` [anle236b]: the inhibition at 10 µM (at α-synuclein (α-syn) (setting [6]); in [2]) was < 10% each time. Besides, the inhibition in vivo at 1 mg with RML scrapie worked out at 12%. For the same molecule, the conc. brain in [3] was found to be 39.3 nmol/g.

With `Brc1cccc(-c2cc(-c3ccc4c(c3)CCO4)[nH]n2)c1` [sery312b], the inhibition at 10 µM at α-synuclein (α-syn) was < 10%; in data set [2], 42%. Also, in the data set with RML scrapie, the inhibition in vivo at 1 mg was 13%. Also, the conc. brain in [3] is 3,6 nmol/g.

Turning to `Brc1cccc(-c2c[nH]c(-c3ccc4c(c3)OCO4)n2)c1` [sery345], the inhibition at 10 µM at α-synuclein (α-syn) (setting [6]) was 57%; in [2], < 10%. Moreover, the inhibition in vivo at 1 mg in the data set on RML scrapie is < 10%. The conc. brain in [3] is 16.6 nmol/g.

Molecule `O=[N+]([O-])c1ccc(-c2cc(-c3cccc(Cl)c3)n[nH]2)cc1` had a melting point of 275 to 276 °C.

Na2CaCDTA: in the data set on M1000, the “Median/Mean* Survival Therapy” value is recorded as 189 days and the “difference” value was 20 days.

With `Fc1cccc(-c2cc(-c3ccc4c(c3)OCO4)n[nH]2)c1` [anle186b], the inhibition at 10 µM on α-synuclein (α-syn) (setting [6]) is < 10%; in [2] it was 48%. Moreover, the “% inhibition PrP^Sc in vivo (c)” value with RML scrapie (PrP^Sc level in brain 106 days after i.c. infection, treatment 24 days: 14 days i.p. 0.84 mg, 2 × 5 days oral gavage 1 mg) was 30^c %. Besides, the “change of PrPSc levels in brain, mixed application scheme” value with RML scrapie (from 80 dpi: 14 days i.p. 0.84 mg, 2 x 5 days gavage 1 mg, measured at 95 and 106 dpi) is on record as “slight reduction of PrPSc accumulation”. Moreover, the conc. brain in [3] is listed as 31.1 nmol/g.

In general, inhibition refers to the relative decrease from the control value, in per cent. The term inhibition in vivo denotes the change of the read-out against control, counted positive when it falls. For orientation: melting point means the temperature of the solid-liquid transition.
